# Experimental data from patent US10266526B2, “Substituted 1,2,3-triazoles as SMYD inhibitors for treating cancer” (EPIZYME, INC., priority 2014, dated 2019).
# Target: SMYD3 (Homo sapiens (Human), UniProt Q9H7B4)
# Assay: SMYD3 biochemical assay (SMYD3 enzyme assay on MEKK2 protein substrate, 3H-SAM scintillation proximity assay)
# Details: Table 1A; average of n = 1 to n = 50; read-out: SMYD3 Biochem IC50
# Summary of the method: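 Detection used scintillation proximity beads to capture ³H-methylated GST-MEKK2 after quench with 100 uM final cold SAM. The reaction was started by SAM/MEKK2 addition after a 30 min RT compound–enzyme preincubation. Enzyme was tag-free full-length human SMYD3 from E. coli, in buffer of 25 mM Tris-Cl pH 8.0, 1 mM TCEP, 0.005% BSG, 0.005% Tween 20.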
# Sequence of SMYD3 (Q9H7B4 whole entry): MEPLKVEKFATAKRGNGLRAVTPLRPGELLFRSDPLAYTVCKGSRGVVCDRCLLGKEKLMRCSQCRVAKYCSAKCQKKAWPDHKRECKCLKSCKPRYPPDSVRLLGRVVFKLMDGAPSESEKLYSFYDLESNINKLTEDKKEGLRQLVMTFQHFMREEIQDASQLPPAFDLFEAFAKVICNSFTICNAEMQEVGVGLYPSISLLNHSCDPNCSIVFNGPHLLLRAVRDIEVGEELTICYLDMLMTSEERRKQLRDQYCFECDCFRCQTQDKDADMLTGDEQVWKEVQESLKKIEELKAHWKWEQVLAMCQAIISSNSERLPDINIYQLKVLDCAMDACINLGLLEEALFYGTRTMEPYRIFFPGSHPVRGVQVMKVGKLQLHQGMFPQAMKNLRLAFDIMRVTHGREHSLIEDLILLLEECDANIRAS
row,IC50,SMILES
1,> 50 µM,"NCCC(=O)N[C@H]1CC[C@H](NC(=O)c2cc(Cl)[nH]n2)CC1 [compound 528, N-((1r,4r)-4-(3-aminopropanamido)cyclohexyl)-5-chloro-1H-pyrazole-3-carboxamide]"

# Same assay, conditions: read-out: SMYD3 Biochem IC50
row,IC50,SMILES
1,> 100 µM,"NCCC(=O)N[C@H]1CC[C@H](NC(=O)c2cccc3[nH]ccc23)CC1 [compound 290, N-((1r,4r)-4-(3-aminopropanamido)cyclohexyl)-1H-indole-4-carboxamide]"
2,> 100 µM,"N[C@H]1CC[C@H](NC(=O)c2ccncc2F)CC1 [compound 308, N-((1r,4r)-4-aminocyclohexyl)-3-fluoroisonicotinamide]"
3,70.4 µM,"CC(NC(=O)c1cccnc1O)C1CCN(C(=O)[C@H](C)N)CC1 (stereo partly drawn) [compound 409, N-(1-(1-(L-alanyl)piperidin-4-yl)ethyl)-2-hydroxynicotinamide]"
4,> 100 µM,"NCCC(=O)N[C@H]1CC[C@H](NC(=O)c2ccc(O)cn2)CC1 [compound 361, N-((1r,4r)-4-(3-aminopropanamido)cyclohexyl)-5-hydroxypicolinamide]"
5,> 50 µM,"N[C@H]1CC[C@H](NC(=O)c2c[nH]cn2)CC1 [compound 521, N-((1r,4r)-4-aminocyclohexyl)-1H-imidazole-4-carboxamide]"
6,14.5 µM,"N[C@H]1CC[C@H](NS(=O)(=O)c2ccc3c(c2)CC(=O)N3)CC1 [compound 429, N-((1r,4r)-4-aminocyclohexyl)-2-oxoindoline-5-sulfonamide]"
7,> 100 µM,"N[C@H]1CC[C@H](NC(=O)c2cc(O)c3ccccc3n2)CC1 [compound 328, N-((1r,4r)-4-aminocyclohexyl)-4-hydroxyquinoline-2-carboxamide]"
8,> 100 µM,"CC(NC(=O)Cc1cncnc1)C1CCN(C(=O)[C@H](C)N)CC1 (stereo partly drawn) [compound 315, N-(1-(1-(L-alanyl)piperidin-4-yl)ethyl)-2-(pyrimidin-5-yl)acetamide]"
9,86.3 µM,"NCCC(=O)N[C@H]1CC[C@H](NC(=O)c2nc3ccc(F)cc3s2)CC1 [compound 499, N-((1r,4r)-4-(3-aminopropanamido)cyclohexyl)-6-fluorobenzo[d]thiazole-2-carboxamide]"
10,> 100 µM,"NCCC(=O)N[C@H]1CC[C@H](NC(=O)c2cnccc2N)CC1 [compound 288, 4-amino-N-((1r,4r)-4-(3-aminopropanamido)cyclohexyl)nicotinamide]"
11,> 100 µM,"Cn1ncnc1C(=O)N[C@H]1CC[C@H](N)CC1 [compound 507, N-((1r,4r)-4-aminocyclohexyl)-1-methyl-1H-1,2,4-triazole-5-carboxamide]"
12,> 100 µM,"N[C@H]1CC[C@H](NC(=O)c2cn3ncccc3n2)CC1 [compound 447, N-((1r,4r)-4-aminocyclohexyl)imidazo[1,2-b]pyridazine-2-carboxamide]"
13,> 100 µM,"Cc1cccc(Cn2nc(C(C)(C)C)cc2C(=O)N[C@H]2CC[C@H](NC(=O)CCN)CC2)c1 [compound 340, N-((1r,4r)-4-(3-aminopropanamido)cyclohexyl)-3-(tert-butyl)-1-(3-methylbenzyl)-1H-pyrazole-5-carboxamide]"
14,> 100 µM,"NC1CCC(NC(=O)[C@H]2Cc3ccccc3CN2)CC1 (stereo partly drawn) [compound 459, (3R)-N-(4-aminocyclohexyl)-1,2,3,4-tetrahydroisoquinoline-3-carboxamide]"

# The remaining lines, values behind:
row,SMILES,IC50
1,"NC(=O)Cn1cc(C(=O)N[C@H]2CC[C@H](N)CC2)nn1 [compound 501, 1-(2-amino-2-oxoethyl)-N-((1r,4r)-4-aminocyclohexyl)-1H-1,2,3-triazole-4-carboxamide]",50 µM
2,"CC(NC(=O)c1ccc(N2CCCC2)cc1)C1CCN(C(=O)[C@H](C)N)CC1 (stereo partly drawn) [compound 227, N-(1-(1-(L-alanyl)piperidin-4-yl)ethyl)-4-(pyrrolidin-1-yl)benzamide]",29.2 µM
3,"NCCC(=O)N[C@H]1CC[C@H](NC(=O)Cc2cc(F)cc(F)c2)CC1 [compound 443, 3-amino-N-((1r,4r)-4-(2-(3,5-difluorophenyl)acetamido)cyclohexyl)propanamide]",> 100 µM
4,"Cc1cccc(Cn2nc(C(C)(C)C)cc2C(=O)NC(C)C2CCN(C(=O)[C@H](C)N)CC2)c1 (stereo partly drawn) [compound 299, N-(1-(1-(L-alanyl)piperidin-4-yl)ethyl)-3-(tert-butyl)-1-(3-methylbenzyl)-1H-pyrazole-5-carboxamide]",> 100 µM
5,"NCCC(=O)N[C@H]1CC[C@H](NC(=O)c2cn3ccsc3n2)CC1 [compound 317, N-((1r,4r)-4-(3-aminopropanamido)cyclohexyl)imidazo[2,1-b]thiazole-6-carboxamide]",> 100 µM
6,"Cc1nscc1C(=O)NC(C)C1CCN(C(=O)[C@H](C)N)CC1 (stereo partly drawn) [compound 258, N-(1-(1-(L-alanyl)piperidin-4-yl)ethyl)-3-methylisothiazole-4-carboxamide]",> 100 µM
7,"CC1Oc2ccc(C(=O)N[C@H]3CC[C@H](NC(=O)CCN)CC3)cc2NC1=O (some centres unmarked) [compound 451, N-((1r,4r)-4-(3-aminopropanamido)cyclohexyl)-2-methyl-3-oxo-3,4-dihydro-2H-benzo[b][1,4]oxazine-6-carboxamide]",9.9 µM
8,"NCCC(=O)N[C@H]1CC[C@H](NC(=O)c2cn(CC(N)=O)nn2)CC1 [compound 516, 1-(2-amino-2-oxoethyl)-N-((1r,4r)-4-(3-aminopropanamido)cyclohexyl)-1H-1,2,3-triazole-4-carboxamide]",> 50 µM
9,"N[C@H]1CC[C@H](NC(=O)c2cc(=O)c3ccccc3o2)CC1 [compound 277, N-((1r,4r)-4-aminocyclohexyl)-4-oxo-4H-chromene-2-carboxamide]",> 100 µM

# Same assay, conditions: read-out: SMYD3 Biochem IC50 (μM)*
row,IC50,SMILES
1,> 100 µM,"NCCC(=O)N[C@H]1CC[C@H](NC(=O)c2cncc(F)c2)CC1 [compound 158, N-((1r,4r)-4-(3-aminopropanamido)cyclohexyl)-5-fluoronicotinamide]"
2,> 100 µM,"CC(=O)Nc1ccc(S(=O)(=O)N2CCC(NC(=O)c3cnn(C)c3)CC2)cc1 [compound 8, N-(1-((4-acetamidophenyl)sulfonyl)piperidin-4-yl)-1-methyl-1H-pyrazole-4-carboxamide]"
3,13.4 µM,"NCCCCNC(=O)c1ccc2c(c1)CC(=O)N2 [compound 106, N-(4-aminobutyl)-2-oxoindoline-5-carboxamide]"
4,25.4 µM,"O=C1Cc2cc(C(=O)NC[C@H]3CCNC3)ccc2N1 [compound 101, (S)-2-oxo-N-(pyrrolidin-3-ylmethyl)indoline-5-carboxamide]"
5,13.7 µM,"N[C@H]1CC[C@H](NC(=O)c2ccc3[nH]c(=O)[nH]c3c2)CC1 [compound 73, N-((1r,4r)-4-aminocyclohexyl)-2-oxo-2,3-dihydro-1H-benzo[d]imidazole-5-carboxamide]"
6,40.4 µM,"O=C1Cc2cc(C(=O)NCC3(O)CCNCC3)ccc2N1 [compound 105, N-((4-hydroxypiperidin-4-yl)methyl)-2-oxoindoline-5-carboxamide]"
7,139 µM,"N[C@H]1CC[C@H](NC(=O)c2ccc3ncsc3c2)CC1 [compound 118, N-((1r,4r)-4-aminocyclohexyl)benzo[d]thiazole-6-carboxamide]"
8,155 µM,"CC(CC(=O)N[C@H]1CC[C@H](N)CC1)C1CC1 (some centres unmarked) [compound 62, N-((1r,4r)-4-aminocyclohexyl)-3-cyclopropylbutanamide]"
9,115 µM,"N[C@H]1CC[C@H](NC(=O)c2ccc3nc(O)ccc3c2)CC1 [compound 76, N-((1r,4r)-4-aminocyclohexyl)-2-hydroxyquinoline-6-carboxamide]"
10,45.8 µM,"CC(=O)c1c[nH]c(C(=O)NC2CCNCC2)c1 [compound 65, 4-acetyl-N-(piperidin-4-yl)-1H-pyrrole-2-carboxamide]"

# The next lines start with the compound.
row,SMILES,IC50
1,"N[C@H]1CC[C@H](NC(=O)c2cnc3c(c2)CC(=O)N3)CC1 [compound 47, N-((1r,4r)-4-aminocyclohexyl)-2-oxo-2,3-dihydro-1H-pyrrolo[2,3-b]pyridine-5-carboxamide]",11.9 µM
2,"O=C1Cc2cc(C(=O)NC(c3ccccc3)C3CCNCC3)ccc2N1 (centres unmarked) [compound 44, 2-oxo-N-(phenyl(piperidin-4-yl)methyl)indoline-5-carboxamide]",14.1 µM
3,"CCc1cccc(C(=O)N[C@H]2CC[C@H](N)CC2)c1 [compound 21, N-((1r,4r)-4-aminocyclohexyl)-3-ethylbenzamide]",57.5 µM
4,"Cc1n[nH]c(C)c1C(=O)N[C@H]1CC[C@H](NC(=O)CCN)CC1 [compound 181, N-((1r,4r)-4-(3-aminopropanamido)cyclohexyl)-3,5-dimethyl-1H-pyrazole-4-carboxamide]",> 100 µM
5,"Cc1nc(-c2ccc(C(=O)NC(C)C3CCN(C(=O)[C@H](C)N)CC3)cc2)no1 (stereo partly drawn) [compound 179, N-(1-(1-(L-alanyl)piperidin-4-yl)ethyl)-4-(5-methyl-1,2,4-oxadiazol-3-yl)benzamide]",> 100 µM
6,"CC(NC(=O)c1ccc2c(c1)CCC(=O)N2)C1CCN(C(=O)[C@H](C)N)CC1 (stereo partly drawn) [compound 96, N-(1-(1-(L-alanyl)piperidin-4-yl)ethyl)-2-oxo-1,2,3,4-tetrahydroquinoline-6-carboxamide]",193 µM
7,"CN1C(=O)Cc2cc(C(=O)NC3CCN(C(=O)[C@@H](N)Cc4ccc(O)cc4)CC3)ccc21 [compound 82, N-(1-(L-tyrosyl)piperidin-4-yl)-1-methyl-2-oxoindoline-5-carboxamide]",8.7 µM
8,"N[C@H]1CC[C@H](NC(=O)c2ccc3ccccc3n2)CC1 [compound 164, N-((1r,4r)-4-aminocyclohexyl)quinoline-2-carboxamide]",> 100 µM
9,"NCCC(=O)NC1CCC(NC(=O)c2ccc3c(c2)CC(=O)N3)CC1 (centres unmarked) [compound 130, N-(4-(3-aminopropanamido)cyclohexyl)-2-oxoindoline-5-carboxamide]",0.29 µM
10,"C[C@@H](N)C(=O)N1CC[C@H](CNC(=O)c2ccc3c(c2)CC(=O)N3)C1 [compound 177, N-(((R)-1-(D-alanyl)pyrrolidin-3-yl)methyl)-2-oxoindoline-5-carboxamide]",19.8 µM
